The text below walks through data of patent publication US20090270397A1, “Methods and compositions for the treatment of cancers, such as melanomas and gliomas” (priority 2008, published 2009).

In general, inhibition refers to the change of the read-out against control, counted positive when it falls. One may read the IC50 as the concentration needed to halve the response being measured.

Data set [1] has as its system human melanoma cell line SK-MEL 19. Put plainly: Screening of Spectrum Collection library for enhancers of TMZ-induced growth inhibition (MTT assay). It counts as cell-based. The following applies: SK-MEL19, 1 μM compound in presence of 50 μg/ml TMZ, 96-well plates, read-out: greater growth inhibition relative to TMZ alone. How it is done: FIGS. 1A and 1B. […] Screening was performed with SK-Mel-19 cells in 96-well plates following by MTT assay. Cells in one set of plate were treated with each library compound alone at 1 μM while cells in the parallel plate were treated with a combination of 1 μM library compound and 50 μg/ml TMZ. Positive candidates were later reconfirmed in triplicate.
A commercial library of 2000 drugs and natural products was screened to identify novel compounds that enhance TMZ-induced growth inhibition in the human melanoma cell line SK-MEL 19. Screening was performed in 96-well plates at final compound concentration of 1 μM, in the absence or presence of 50 μg/ml TMZ, followed by MTT assay (FIG. 1A).
(Formazan colour is commonly taken as a measure of viable cells.)

The conditions of data set [2]: cited from earlier work.
The test system of another data set is melanoma cells. Kind of data set: Antifolate agents as enhancers of TMZ, MTT assay (FIG. 7). It counts as cell-based. The settings on record: 0.01 uM antifolate in combination with TMZ, 72 h. As for the experimental part: FIG. 7 is a graph presenting the results of tests of several antifolate agents as enhancers of anti-neoplastic activity. […] Cells were treated with the indicated dose of TMZ alone, or in combination with 0.01 uM PYR, MTX (Methotrexate), TMP (Trimethoprim), TMTX (Trimetrexate), PTX (Piritrexim), and CYC (Cycloguanil). Cell growth was assessed by MTT assay after 72 h drug treatment.
Among the six “hits” identified from library screening, both PYR and triamterene are antifolate compounds.

Data set [3] is described as follows: Further antifolate agents as enhancers of temozolomide activity (FIGS. 9 and 10). The settings on record: FIG. 9. It counts as cell-based. As for the experimental part:
FIG. 9 is a further graph presenting the results of tests of several antifolate agents as enhancers of anti-neoplastic activity. In the figure, N1 is pterin-6-carboxylic acid, N2 is aminopterin, N3 is amiloride and N4 is N,N-hexamethylene amiloride.
FIG. 10 presents further data from the testing of additional agents for use in accordance with the invention. Thus, TMZ was administered in combination with compounds S1-S14. The compounds tested are as follows: S1-dipyridamole. S2-methotrexate, S3-minoxidil, S4-prazosin hydrochloride, S5-pyrimethamine, S6-triamterene, S7-trimethoprim, S8-aminopterin, S9-pipemidic acid, S10-piromidic acid, S11-famciclovir, S12-alfuzocin, S13-xanthopterin, and S14-leucopterin.
In FIGS. 9 and 10, additional antifolate agents were tested, and the results indicating their activity as enhancers of TMZ activity are set forth.

The test system of a further data set is SK-MEL 19 cells. Put plainly: MTT cell proliferation/viability assay in SK-MEL 19 melanoma cells. It counts as cell-based, human. The following applies: for sensitization to TMZ (effect on TMZ response curve): SK-MEL 19 cells. As for the experimental part:
Dose-response diagrams of SKM-19 cells exposed to TMZ (FIG. 2A) or pyrimethamine (PYR) (FIG. 2B) alone were prepared for comparison. Melanoma cells were exposed to the indicated concentration of TMZ or PYR for 72 hours. Cell growth inhibition was evaluated by the MTT assay. Survival relative to the control is presented as mean±standard error of the mean of at least three experiments (with viability of control cells set at 100%). In FIG. 2C, PYR enhances TMZ efficacy in various cancer cell lines. Cells were treated with indicated concentrations of TMZ or PYR at the same time and left for 72 hours. Cell viability was determined by MTT assay. SK-MeI 19, SK-Mel 100, SK-Mel 173, and SK-Mel 192 are melanoma cell lines; LN-18 and T98G are glioma cell lines. * P<0.05, **P<0.01.
(§1) FIGS. 8A-8C. PYR antifolate activity enhances TMZ chemotherapeutic efficacy. A, the growth inhibitory effects of PYR, DDEP, DDMP, CYC, and the classical antifolate MTX on TMZ response curve were examined by MTT assay in melanoma and glioma cells. […] The cytotoxic effect of the combination of TMZ (25 μg/ml) and PYR (0.5 μM) can be rescued by LV (10 μM) as examined by MTT assay (B) and the level of cleaved PARP (C) in SK-MEL 19 cells. 1. Control; 2. TMZ; 3. PYR; 4. TMZ+PYR; and 5. TMZ+PYR+LV. ** P<0.01, compared to 2, 3, or 5.
(§2) The cell growth and cytotoxicity after treatment with TMZ and/or PYR on melanoma cells and glioma cells was performed using Colorimetric MTT assay for cell survival and proliferation assay (MTT Assay Kit, Promega). Tumor cells were seeded at 3000 cells per well (100 μl volume) in 96-well plates and allowed to attach overnight. After TMZ and PYR treatment for 72 hours, the cells were stained with MTT, which is then converted to dark blue formazan crystals by mitochondrial dehydrogenases in viable cells. The plates were read with a microplate reader by measuring the absorbance of converted MTT at 490 nm. Results were expressed as the OD490 relative to that of untreated cells. Cell viability was also determined by the trypan-blue dye exclusion method.

In data set [4] the test system is cleaved PARP in SK-MEL 19 cells. Put plainly: Leucovorin rescue, cleaved PARP level. It counts as cell-based, human. The settings on record: 10 μM LV added to cells treated with TMZ/PYR. How it is done:
as §1
Leucovorin (N-5-formyltetrahydrofolate, LV, folinic acid), a reduced form of folate, is used widely to specifically reverse the toxic effects of antifolates (27). To further confirm that PYR-enhanced TMZ chemotherapeutic efficacy in melanoma cells was due to the antifolate activity of PYR, 10 μM LV was added to cells treated with TMZ/PYR. LV rescued both the inhibition of cell growth (FIG. 8B) and the increase in apoptotic death induced by TMZ/PYR as measured by the proteolytic cleavage of PARP by caspase-3 (FIG. 8C).

A further data set concerns SK-MEL 19. Put plainly: Cell death by trypan blue dye exclusion. It counts as cell-based, human. The following applies: clinically-relevant concentration of TMZ, PYR 0.5 μM, 72 hours. How it is done: Melanoma cells were exposed to the indicated concentration of TMZ, PYR or both for 72 hours. In FIG. 5A, cell death was evaluated by trypan blue dye exclusion. * P<0.05, compared to 2 or 3. In FIG. 5B, cleaved Caspase-3 was determined by Western blot analysis. 1. Control; 2. TMZ (25 μg/ml); 3. PYR (0.5 μM), and 4. TMZ and PYR combination.
as §2
To investigate whether PYR can enhance the induction of cell death by TMZ, Trypan blue staining was employed to determine the ratio of dead cells versus total cells in SK-MEL 19. […]

The conditions of data set [5]: cited from earlier work. This is another data set of the same source.

With `[H]/N=C(\N/C(=N/[H])NCCCCCCNC(=N)NC(=N)Nc1ccc(Cl)cc1)Nc1ccc(Cl)cc1` [chlorhexidine], in data set [1], the inhibition at 1 µM is no less than 50%.

Turning to `CCc1nc(N)nc(N)c1-c1ccc(Cl)cc1` [PYR, pyrimethamine], the inhibition at 1 µM in data set [1] was no less than 50%. Further, in data set [2] (in vivo), the blood-brain barrier crossing result was “easily crosses the blood-brain barrier”. Besides, the oral bioavailability result in data set [2] (oral administration) is reported as “bioavailable following oral administration”. For the compound `COc1cc(Cc2cnc(N)nc2N)cc(OC)c1OC` [TMP, Trimethoprim], the “enhancement of TMZ efficacy” value with melanoma cells was “enhance TMZ efficacy”. Turning to `N=C(N)NC(=O)c1nc(Cl)c(N)nc1N` [N3, amiloride], in data set [3], the “enhancement of the antineoplastic activity of temozolomide” value (from here on “enhancement … of temozolomide”) is “favorable enhancement”. With `CC1(C)N=C(N)N=C(N)N1c1ccc(Cl)cc1` [CYC, cycloguanil], the “enhancement of TMZ efficacy” value in the data set on melanoma cells is recorded as “enhance TMZ efficacy”.

For `Nc1nc2c(c(=O)[nH]1)N(C=O)C(CNc1ccc(C(=O)N[C@@H](CCC(=O)O)C(=O)O)cc1)CN2` (some centres unmarked) [LV, N-5-formyltetrahydrofolate], the “rescue of inhibition of cell growth induced by TMZ/PYR” value with SK-MEL 19 cells (10 μM LV added to cells treated with TMZ (25 μg/ml)/PYR (0.5 μM), MTT) is reported as “rescued”. In addition, the “rescue of increase in apoptotic death induced by TMZ/PYR (proteolytic cleavage of PARP)” value in data set [4] is recorded as “rescued”. As for `CCc1nc(N)nc(N)c1-c1ccc(Cl)c(Cl)c1` [DDEP, etoprine], the “sensitization to TMZ (effect on TMZ response curve)” value (“sensitization to TMZ” below) with SK-MEL 19 cells (0.005 μM antifolate, MTT) is recorded as “significant sensitization to TMZ”.

Regarding `S=C=NCc1ccccc1` [benzyl isothiocyanate], the inhibition at 1 µM in data set [1] is no less than 50%. As to `COc1cc(NCc2ccc3nc(N)nc(N)c3c2C)cc(OC)c1OC` [TMTX, Trimetrexate], the “enhancement of TMZ efficacy” value in the data set with melanoma cells is recorded as “enhance TMZ efficacy”.

`Nc1nc(N)c2nc(-c3ccccc3)c(N)nc2n1` [triamterene]: the inhibition at 1 µM in data set [1] is no less than 50%.

On to `Nc1nc2ncc(C(=O)O)nc2c(=O)[nH]1` [N1, pterin-6-carboxylic acid], for which the “enhancement … of temozolomide” value in data set [3] is recorded as “favorable enhancement”. On to `COc1ccc(OC)c(Cc2cnc3nc(N)nc(N)c3c2C)c1` [PTX, Piritrexim], for which, in the data set with melanoma cells, the “enhancement of TMZ efficacy” value was “enhance TMZ efficacy”. Consider `Oc1ccc(Cl)c2cccnc12` [cloxyquin], for which the inhibition at 1 µM in data set [1] was no less than 50%.

As for `NC(N)=NC(=O)c1nc(Cl)c(N2CCCCCC2)nc1N` [N4, N,N-hexamethylene amiloride], the “enhancement … of temozolomide” value in data set [3] is given as “favorable enhancement”. In the case of `CN(Cc1cnc2nc(N)nc(N)c2n1)c1ccc(C(=O)N[C@@H](CCC(=O)O)C(=O)O)cc1` [MTX, methotrexate], in the data set with SK-MEL 19 cells (0.001 μM antifolate, MTT), the “sensitization to TMZ” value is on record as “significant sensitization to TMZ”. In the data set with melanoma cells, the “enhancement of TMZ efficacy” value is reported as “enhance TMZ efficacy”. For the compound `Cc1nc(N)nc(N)c1-c1ccc(Cl)c(Cl)c1` [DDMP, metoprine], the “sensitization to TMZ” value in the data set with SK-MEL 19 cells (0.005 μM antifolate, MTT) is given as “significant sensitization to TMZ”.

Consider `Cn1nnc2c(C(N)=O)ncn2c1=O` [TMZ, temozolomide], for which, in the data set on SK-MEL 19 cells (Homo sapiens, SK-MEL19, TMZ alone, SK-MEL-19 cells), the IC50 is roughly 60 µg/mL. In addition, in the data set on SK-MEL 19, the “cell death (ratio of dead cells versus total cells)” value is on record as “approximately 15%”. Further, the “clinically achievable serum levels during chemotherapy” value in data set [5] was 100 µM.
